Molecules are shown by their SMILES. Read-outs that look alike come from different tables or passages of the source.

This note sets out measurements from patent US9907309B2 (priority 2010, dated 2018).

Settings in all cases: solo, growth at 405 nm 7 days after inoculation
One experiment relates to Phytophtora infestans. The format is cell-based.
In the next experiment the test system is Septoria tritici.
A further experiment relates to Alternaria solani.

`C[C@]1(COC(=O)C2CC2)[C@@H]2C[C@H](O)[C@@]3(C)Oc4cc(-c5cccnc5)oc(=O)c4[C@H](O)[C@@H]3[C@@]2(C)CC[C@@H]1OC(=O)C1CC1` [Compound I, [(3S,4R,4aR,6S,6aS,12R,12aS,12bS)-3-(cyclopropanecarbonyloxy)-6,12-dihydroxy-4,6a,12b-trimethyl-11-oxo-9-(pyridin-3-yl)-1,2,3,4,4a,5,6,6a,12a,12b-decahydro-11H,12H-benzo[f]pyrano[4,3-b]chromen-4-yl]methyl cyclopropanecarboxylate]: the Observed efficacy turned out to be 6% with Phytophtora infestans (4 ppm), 0% in the experiment on Septoria tritici (4 ppm), 0% in the experiment with Septoria tritici (63 ppm) and 0% with Alternaria solani (1 ppm).

In the experiment on Septoria tritici (0.063 ppm), `Cn1cc(C(=O)Nc2ccccc2-c2cc(F)c(F)c(F)c2)c(C(F)F)n1` [Fluxapyroxad, fluxapyroxad] yielded an Observed efficacy of 54%.

On to `COC(=O)N(OC)c1ccccc1COc1ccn(-c2ccc(Cl)cc2)n1` [Pyraclostrobin, pyraclostrobin], for which the Observed efficacy amounted to 28% in the experiment on Phytophtora infestans (0.063 ppm), 63% in the experiment with Septoria tritici (0.004 ppm) and 16% in the experiment on Alternaria solani (0.001 ppm).
